# Reference: PubChem BioAssay AID1259411 (Chemical Carcinogenesis Research Information System (CCRIS), 2018)
# Active and inactive are the calls of the source. No rule for the calls is given here.
# Tested on: rodent carcinogenicity bioassays, tumor incidence
# Experiment: CCRIS carcinogenicity studies
# How it was run: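 NCI-built, expert-reviewed records of carcinogenicity and related test outcomes (mutagenicity, tumor promotion/inhibition) compiled from published and report sources, historical span 1985-2011, not updated.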
smiles,measurement,setting,value
Cc1cc(C)nc(NS(=O)(=O)c2ccc(N)cc2)n1,carcinogen call,"Species: RAT, Strain/Sex: F344/FEMALE, Route: ORAL, TRANS-PLACENTAL, Dose: 0, 10, 40, 600 1200, 2400 PPM IN DIET FOR 24 MO (PARENTS FED 0; 10; 600; 1200; 2400 PPM RESPECTIVELY IN DIET) (STUDY DUR, Dose: 0, 10, 40, 600 1200, 2400 PPM IN DIET FOR 24 MO (PARENTS FED 0; 10; 600; 1200; 2400 PPM RESPECTIVELY IN DIET) (STUDY DUR, Tumor Site: Type of Lesion: THYROID GLAND: FOLLICULAR CELL ADENOCARCINOMA",active; positive
same,carcinogen call,"Species: RAT, Strain/Sex: F344/MALE, Route: ORAL, TRANS-PLACENTAL, Dose: 0, 10, 40, 600 1200, 2400 PPM IN DIET FOR 24 MO (PARENTS FED 0; 10; 600; 1200; 2400 PPM RESPECTIVELY IN DIET) (STUDY DUR, Dose: 0, 10, 40, 600 1200, 2400 PPM IN DIET FOR 24 MO (PARENTS FED 0; 10; 600; 1200; 2400 PPM RESPECTIVELY IN DIET) (STUDY DUR, Tumor Site: Type of Lesion: THYROID GLAND: FOLLICULAR CELL ADENOCARCINOMA",active; positive
CC(C)CON=O,carcinogen call,"Species: MOUSE, Strain/Sex: B6C3F1/FEMALE, Route: INHALATION, Dose: 0, 158, 315, 630 MG/M3 6 HR/D 5 D/WK FOR 103 WK (STUDY DURATION: 104 WK), Dose: 0, 158, 315, 630 MG/M3 6 HR/D 5 D/WK FOR 103 WK (STUDY DURATION: 104 WK), Tumor Site: Type of Lesion: LUNG: ALVEOLAR/BRONCHIOLAR ADENOMA, ALVEOLAR/BRONCHIOLAR ADENOMA OR CARCINOMA",active; positive
same,carcinogen call,"Species: MOUSE, Strain/Sex: B6C3F1/MALE, Route: INHALATION, Dose: 0, 158, 315, 630 MG/M3 6 HR/D 5 D/WK FOR 103 WK (STUDY DURATION: 104 WK), Dose: 0, 158, 315, 630 MG/M3 6 HR/D 5 D/WK FOR 103 WK (STUDY DURATION: 104 WK), Tumor Site: Type of Lesion: LUNG: ALVEOLAR/BRONCHIOLAR ADENOMA, ALVEOLAR/BRONCHIOLAR ADENOMA OR CARCINOMA",active; positive
same,carcinogen call,"Species: RAT, Strain/Sex: F344/FEMALE, Route: INHALATION, Dose: 0, 158, 315, 630 MG/M3 6 HR/D 5 D/WK FOR 103 WK (STUDY DURATION: 105 WK), Dose: 0, 158, 315, 630 MG/M3 6 HR/D 5 D/WK FOR 103 WK (STUDY DURATION: 105 WK), Tumor Site: Type of Lesion: LUNG: ALVEOLAR/BRONCHIOLAR ADENOMA, ALVEOLAR/BRONCHIOLAR CARCINOMA OR ADENOMA",active; positive
same,carcinogen call,"Species: RAT, Strain/Sex: F344/MALE, Route: INHALATION, Dose: 0, 158, 315, 630 MG/M3 6 HR/D 5 D/WK FOR 103 WK (STUDY DURATION: 105 WK), Dose: 0, 158, 315, 630 MG/M3 6 HR/D 5 D/WK FOR 103 WK (STUDY DURATION: 105 WK), Tumor Site: Type of Lesion: LUNG: ALVEOLAR/BRONCHIOLAR ADENOMA, ALVEOLAR/BRONCHIOLAR CARCINOMA",active; positive
C1COCCN1,carcinogen call,"Species: RAT, Strain/Sex: SPRAGUE-DAWLEY/FEMALE, Route: INHALATION, Dose: 0, 10, 50, 150 PPM 6 HR/D 5 D/WK FOR 104 WK (STUDY DURATION: 105 WK), Dose: 0, 10, 50, 150 PPM 6 HR/D 5 D/WK FOR 104 WK (STUDY DURATION: 105 WK)",inactive; negative
same,carcinogen call,"Species: RAT, Strain/Sex: SPRAGUE-DAWLEY/MALE, Route: INHALATION, Dose: 0, 10, 50, 150 PPM 6 HR/D 5 D/WK FOR 104 WK (STUDY DURATION: 105 WK), Dose: 0, 10, 50, 150 PPM 6 HR/D 5 D/WK FOR 104 WK (STUDY DURATION: 105 WK)",inactive; negative
CCCCCCC(=O)O[C@H]1CC[C@H]2[C@@H]3CCC4=CC(=O)CC[C@]4(C)[C@H]3CC[C@]12C,carcinogen call,"Species: RAT, Strain/Sex: WISTAR/FEMALE, Route: INTRAMUSCULAR, Dose: 0, 12.5 MG 1/WK FOR 24 WK (STUDY DURATION: 24 WK), Tumor Site: Type of Lesion: BLADDER: PAPILLOMA OR CARCINOMA",active; positive
same,carcinogen call,"Species: RAT, Strain/Sex: WISTAR/FEMALE, Route: INTRAMUSCULAR, Dose: 0, 12.5 MG 1/WK FOR 24 WK ADMINISTERED TO OOPHORECTOMIZED RATS (STUDY DURATION: 24 WK)",inactive; negative
CCNC(=O)N(CCO)N=O,carcinogen call,"Species: RAT, Strain/Sex: F344/FEMALE, Route: INTRAVESICULAR, Dose: 0, 3.6 MG 2/WK FOR 30 WK (STUDY DURATION: LIFETIME), Tumor Site: Type of Lesion: BLADDER: TUMOR, UTERUS: TUMOR",active; positive
same,carcinogen call,"Species: RAT, Strain/Sex: F344/FEMALE, Route: ORAL, Dose: 0, 37, 74 MG/L IN DRINKING WATER 5 D/WK FOR 30 WK (STUDY DURATION: LIFETIME), Dose: 0, 37, 74 MG/L IN DRINKING WATER 5 D/WK FOR 30 WK (STUDY DURATION: LIFETIME), Tumor Site: Type of Lesion: MAMMARY GLAND: CARCINOMA",active; positive
same,carcinogen call,"Species: RAT, Strain/Sex: F344/MALE, Route: GAVAGE, Dose: 0, 3.6 MG IN 0.2 ML ETHYL ACETATE/CORN OIL (1:1) 2/WK FOR 31 WK (TOTAL DOSE: 223 MG) (STUDY DURATION: 80 WK), Tumor Site: Type of Lesion: LIVER: CARCINOMA, LUNG: CARCINOMA OR ADENOMA, BRAIN: TUMORS, THYROID: CARCINOMA OR ADENOMA, PERITONEUM: MESOTHELIOMA, Tumor Site: Type of Lesion: LIVER: CARCINOMA, LUNG: CARCINOMA OR ADENOMA, BRAIN: TUMORS, THYROID: CARCINOMA OR ADENOMA, PERITONEUM: MESOTHELIOMA",active; positive
same,carcinogen call,"Species: RAT, Strain/Sex: F344/MALE, Route: ORAL, Dose: 0, 37, 74 MG/L IN DRINKING WATER 5 D/WK FOR 30 WK (STUDY DURATION: LIFETIME), Dose: 0, 37, 74 MG/L IN DRINKING WATER 5 D/WK FOR 30 WK (STUDY DURATION: LIFETIME), Tumor Site: Type of Lesion: LIVER: TUMOR, LUNG: TUMOR, THYROID: FOLLICULAR TUMOR, MESOTHELIUM: TUMOR, NERVOUS SYSTEM: TUMOR, SKIN: TUMOR, Tumor Site: Type of Lesion: LIVER: TUMOR, LUNG: TUMOR, THYROID: FOLLICULAR TUMOR, MESOTHELIUM: TUMOR, NERVOUS SYSTEM: TUMOR, SKIN: TUMOR",active; positive
C[C@]12C=CC(=O)C=C1CC[C@@H]1[C@@H]2C(=O)C[C@@]2(C)[C@H]1CC[C@]2(O)C(=O)CO,carcinogen call,"Species: MOUSE, Strain/Sex: ICR/FEMALE, Route: ORAL, Dose: 0, 0.25, 0.5, 1, 5 MG/KG/D FOR 18 MO (STUDY DURATION: 18 MO), Dose: 0, 0.25, 0.5, 1, 5 MG/KG/D FOR 18 MO (STUDY DURATION: 18 MO)",inactive; negative
same,carcinogen call,"Species: MOUSE, Strain/Sex: ICR/MALE, Route: ORAL, Dose: 0, 0.25, 0.5, 1, 5 MG/KG/D FOR 18 MO (STUDY DURATION: 18 MO), Dose: 0, 0.25, 0.5, 1, 5 MG/KG/D FOR 18 MO (STUDY DURATION: 18 MO)",inactive; negative
c1ccncc1,carcinogen call,"Species: MOUSE, Strain/Sex: B6C3F1/FEMALE, Route: ORAL, Dose: 0, 125, 250, 500 PPM IN DRINKING WATER FOR 105 WK (STUDY DURATION: 105 WK), Dose: 0, 125, 250, 500 PPM IN DRINKING WATER FOR 105 WK (STUDY DURATION: 105 WK), Tumor Site: Type of Lesion: LIVER: HEPATOCELLULAR ADENOMA, HEPATOCELLULAR CARCINOMA, OR HEPATOBLASTOMA",active; positive
same,carcinogen call,"Species: MOUSE, Strain/Sex: B6C3F1/MALE, Route: ORAL, Dose: 0, 250, 500, 1000 PPM IN DRINKING WATER FOR 104 WK (STUDY DURATION: 104 WK), Dose: 0, 250, 500, 1000 PPM IN DRINKING WATER FOR 104 WK (STUDY DURATION: 104 WK), Tumor Site: Type of Lesion: LIVER: HEPATOCELLULAR ADENOMA, HEPATOCELLULAR CARCINOMA, OR HEPATOBLASTOMA",active; positive
same,carcinogen call,"Species: RAT, Strain/Sex: F344/FEMALE, Route: ORAL, Dose: 0, 100, 200, 400 PPM IN DRINKING WATER FOR 105 WK (STUDY DURATION: 105 WK), Dose: 0, 100, 200, 400 PPM IN DRINKING WATER FOR 105 WK (STUDY DURATION: 105 WK), Tumor Site: Type of Lesion: MULTIPLE ORGANS: MONONUCLEAR CELL LEUKEMIA",equivocal
same,carcinogen call,"Species: RAT, Strain/Sex: F344/MALE, Route: ORAL, Dose: 0, 100, 200, 400 PPM IN DRINKING WATER FOR 104 WK (STUDY DURATION: 104 WK), Dose: 0, 100, 200, 400 PPM IN DRINKING WATER FOR 104 WK (STUDY DURATION: 104 WK), Tumor Site: Type of Lesion: KIDNEY: RENAL TUBULE ADENOMA, RENAL TUBULE ADENOMA OR CARCINOMA",active; positive
same,carcinogen call,"Species: RAT, Strain/Sex: WISTAR/MALE, Route: ORAL, Dose: 0, 100, 200, 400 PPM IN DRINKING WATER FOR 104 WK (STUDY DURATION: 104 WK), Dose: 0, 100, 200, 400 PPM IN DRINKING WATER FOR 104 WK (STUDY DURATION: 104 WK), Tumor Site: Type of Lesion: TESTIS: INTERSTITIAL CELL ADENOMA",equivocal
ClC(Cl)=C(Cl)C(Cl)=C(Cl)Cl,carcinogen call,"Species: RAT, Strain/Sex: SPRAGUE-DAWLEY/MALE,FEMALE, Route: ORAL, Dose: 0.2, 2.0, 20 MG/KG/DAY IN DIET, Dose: 0.2, 2.0, 20 MG/KG/DAY IN DIET, Tumor Site: Type of Lesion: KIDNEY: RENAL TUBULAR ADENOMA, ADENOCARCINOMA",active; positive
